# US9434724B2, “Quinuclidines for modulating alpha 7 activity” (priority 2014, dated 2016)
# Read-outs that look alike come from different tables or passages of the source.
# Experiments:
# [1] = target: rat brain nicotinic receptor (α7 NAChR) (Rattus norvegicus (Rat), UniProt Q05941); assay type: binding
# CYP3A4 [2] = target: T1, CYP3A4 (Homo sapiens (Human), UniProt P08684); conditions: microsomes, 5 min
# Human plasma stability = assay type: in vitro ADME; conditions: for half-life at 1 μM: pH 7.4, read-out: T1/2
# Procedure, shortened: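 Protocol 1: 1 μM compound in pH 7.4 sodium-heparin human plasma at 37° C, sampled 0–120 min. Protocol 2: 5 μM in plasma at pH 7.4–8.0, 37° C, duplicates, sampled 0–120 min. Both: LC-MS/MS percent remaining versus t0; half-life from single-phase exponential decay.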
# CYP2C19 [3] = target: T2, CYP2C19 (Homo sapiens (Human), UniProt P33261); conditions: microsomes
# T2 sequence (P33261 whole entry): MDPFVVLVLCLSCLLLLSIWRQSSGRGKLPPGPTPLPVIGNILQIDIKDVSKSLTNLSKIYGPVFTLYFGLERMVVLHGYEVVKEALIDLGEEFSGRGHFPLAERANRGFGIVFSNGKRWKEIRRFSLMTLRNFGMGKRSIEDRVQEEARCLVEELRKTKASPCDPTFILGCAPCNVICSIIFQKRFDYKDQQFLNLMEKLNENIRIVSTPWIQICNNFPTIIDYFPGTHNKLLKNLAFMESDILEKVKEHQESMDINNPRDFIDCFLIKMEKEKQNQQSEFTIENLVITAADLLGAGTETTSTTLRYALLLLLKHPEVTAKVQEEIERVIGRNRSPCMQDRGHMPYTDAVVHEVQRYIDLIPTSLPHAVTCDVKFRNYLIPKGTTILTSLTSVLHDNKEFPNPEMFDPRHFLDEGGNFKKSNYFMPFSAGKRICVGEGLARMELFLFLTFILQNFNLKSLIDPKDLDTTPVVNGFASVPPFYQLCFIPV
# CYP1A2 = CYP1A2 (Homo sapiens (Human), UniProt P05177); assay: Cytochrome P450 inhibition in human liver microsomes, CYP1A2
# Chain of CYP1A2 (P05177 whole entry): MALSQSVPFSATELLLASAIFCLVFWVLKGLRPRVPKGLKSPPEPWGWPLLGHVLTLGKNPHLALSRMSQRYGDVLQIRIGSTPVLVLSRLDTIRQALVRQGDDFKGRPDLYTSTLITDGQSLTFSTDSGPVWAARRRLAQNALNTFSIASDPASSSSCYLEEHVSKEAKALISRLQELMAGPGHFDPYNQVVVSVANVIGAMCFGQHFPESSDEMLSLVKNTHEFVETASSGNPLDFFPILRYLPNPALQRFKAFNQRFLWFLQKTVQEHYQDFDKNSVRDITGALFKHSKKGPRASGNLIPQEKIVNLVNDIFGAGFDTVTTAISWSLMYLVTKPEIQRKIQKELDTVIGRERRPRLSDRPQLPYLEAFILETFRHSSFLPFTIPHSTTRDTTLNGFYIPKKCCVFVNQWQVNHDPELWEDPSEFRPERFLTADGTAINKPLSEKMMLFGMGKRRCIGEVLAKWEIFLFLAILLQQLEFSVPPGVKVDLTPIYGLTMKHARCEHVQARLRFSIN
# [4] = Metabolic stability assay in human liver microsomes (HLM); assay type: in vitro ADME; conditions: 1 μM
# Procedure, shortened: (§1)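 In Protocol 1, compound was 1 μM final with NADPH at 37 °C, sampled at 0–45 min. In Protocol 2, 1.5 μM compound with 0.75 mg/mL microsomes (pre-NADPH mix) in 0.1 M potassium phosphate, 1 mM EDTA, pH 7.4 was pre-incubated 10 min, then NADPH started the reaction. Both: LC-MS/MS % remaining versus time 0, half-life from single-phase exponential fit.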
# [5] = Metabolic stability assay in rat liver microsomes (RLM); assay type: in vitro ADME; conditions: 1 μM
# Procedure, shortened: as §1
# CYP2C9 = CYP2C9 (Homo sapiens (Human), UniProt P11712); assay: Cytochrome P450 inhibition in human liver microsomes, CYP2C9
# Chain of CYP2C9 (P11712 whole entry): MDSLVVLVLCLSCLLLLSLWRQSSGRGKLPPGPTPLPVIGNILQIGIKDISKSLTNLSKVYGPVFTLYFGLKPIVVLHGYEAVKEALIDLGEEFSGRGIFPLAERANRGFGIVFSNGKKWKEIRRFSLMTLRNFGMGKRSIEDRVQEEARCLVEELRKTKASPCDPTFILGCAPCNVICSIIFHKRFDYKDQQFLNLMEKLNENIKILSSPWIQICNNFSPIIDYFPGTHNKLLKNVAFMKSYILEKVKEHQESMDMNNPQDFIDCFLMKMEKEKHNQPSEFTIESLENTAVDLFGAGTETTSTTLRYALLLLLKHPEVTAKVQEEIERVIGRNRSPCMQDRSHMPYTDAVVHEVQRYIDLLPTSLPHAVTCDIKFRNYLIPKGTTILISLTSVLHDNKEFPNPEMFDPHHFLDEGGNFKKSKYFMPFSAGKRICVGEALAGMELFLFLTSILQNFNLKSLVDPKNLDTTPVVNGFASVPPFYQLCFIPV
# CYP2C19 [6] = target: T2, CYP2C19; assay: Cytochrome P450 inhibition in human liver microsomes, CYP2C19
# CYP2D6 = CYP2D6 (Homo sapiens (Human), UniProt P10635); assay: Cytochrome P450 inhibition in human liver microsomes, CYP2D6
# Chain of CYP2D6 (P10635 whole entry): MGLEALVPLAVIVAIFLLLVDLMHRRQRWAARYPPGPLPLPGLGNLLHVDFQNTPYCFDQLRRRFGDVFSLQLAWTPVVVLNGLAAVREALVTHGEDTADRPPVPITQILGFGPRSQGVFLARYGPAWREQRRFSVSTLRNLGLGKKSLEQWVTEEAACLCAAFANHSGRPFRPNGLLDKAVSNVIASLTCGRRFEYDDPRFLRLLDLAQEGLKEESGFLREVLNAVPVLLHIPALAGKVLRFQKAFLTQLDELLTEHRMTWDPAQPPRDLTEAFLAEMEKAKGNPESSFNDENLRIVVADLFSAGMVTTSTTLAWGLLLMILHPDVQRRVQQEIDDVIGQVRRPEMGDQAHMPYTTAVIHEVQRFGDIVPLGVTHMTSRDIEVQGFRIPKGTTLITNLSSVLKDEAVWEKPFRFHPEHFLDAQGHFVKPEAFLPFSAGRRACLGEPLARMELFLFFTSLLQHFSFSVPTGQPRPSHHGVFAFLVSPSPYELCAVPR
# CYP3A4 [7] = target: T1, CYP3A4; assay: Cytochrome P450 inhibition in human liver microsomes, CYP3A4
# [8] = read-out: 2C19 IC50, Protocol 1
# [9] = read-out: 3A4 IC50 (Midazolam), substrate midazolam, Protocol 2
# [10] = read-out: 2C19 IC50, Protocol 2
# [11] = Protocol No. 1, human plasma, 1 μM, 37° C.
# [12] = Protocol No. 2, human liver microsomes
# [13] = Protocol No. 2, rat liver microsomes
# T1 sequence (P08684 whole entry): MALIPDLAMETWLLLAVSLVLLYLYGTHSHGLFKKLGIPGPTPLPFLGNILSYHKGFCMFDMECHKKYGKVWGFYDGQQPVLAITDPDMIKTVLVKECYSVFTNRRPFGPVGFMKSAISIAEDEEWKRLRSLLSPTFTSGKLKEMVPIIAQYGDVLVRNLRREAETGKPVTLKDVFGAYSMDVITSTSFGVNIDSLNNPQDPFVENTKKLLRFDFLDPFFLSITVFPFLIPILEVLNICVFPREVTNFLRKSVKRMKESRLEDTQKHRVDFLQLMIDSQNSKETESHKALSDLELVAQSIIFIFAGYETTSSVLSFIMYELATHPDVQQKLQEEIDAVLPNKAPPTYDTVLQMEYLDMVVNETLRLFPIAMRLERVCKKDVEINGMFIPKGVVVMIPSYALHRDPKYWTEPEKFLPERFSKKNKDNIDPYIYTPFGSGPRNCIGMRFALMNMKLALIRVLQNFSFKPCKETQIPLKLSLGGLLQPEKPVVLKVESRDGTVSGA
# Chain of rat brain nicotinic receptor (α7 NAChR) (Q05941 23-502 limits assumed): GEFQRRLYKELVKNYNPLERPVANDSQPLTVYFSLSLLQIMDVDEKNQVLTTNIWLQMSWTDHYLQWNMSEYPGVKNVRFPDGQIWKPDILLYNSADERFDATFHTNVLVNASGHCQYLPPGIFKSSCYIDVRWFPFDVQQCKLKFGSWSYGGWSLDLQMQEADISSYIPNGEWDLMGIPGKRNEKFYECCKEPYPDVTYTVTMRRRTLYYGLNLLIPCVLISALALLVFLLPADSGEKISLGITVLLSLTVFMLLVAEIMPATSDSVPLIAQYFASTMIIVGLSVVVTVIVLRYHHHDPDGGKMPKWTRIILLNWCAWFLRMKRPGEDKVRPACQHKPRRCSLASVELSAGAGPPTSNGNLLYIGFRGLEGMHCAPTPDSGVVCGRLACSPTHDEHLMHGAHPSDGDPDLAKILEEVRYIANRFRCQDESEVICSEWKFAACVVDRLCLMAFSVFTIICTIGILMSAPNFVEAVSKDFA
SMILES,IC50 [1],Ki [1],IC50 (CYP3A4 [2]),"% Remaining @ 2 h (Human plasma stability; human, plasma, 2 h, 5 μM)",IC50 (CYP2C19 [3]; 45 min),"IC50 (CYP1A2; read-out: 1A2 IC50, Protocol 1)","HLM ([4]; human, microsomes)","RLM ([5]; rat, microsomes)","IC50 (CYP2C9; read-out: 2C9 IC50, Protocol 1)",IC50 (CYP2C19 [6]; [8]),other results
"COc1cc2[nH]cc(C(=O)OCC34CCN(CC3)CC4)c2cc1C [Compound 56, quinuclidin-4-ylmethyl 6-methoxy-5-methyl-1H-indole-3-carboxylate]",0.644 µM,0.552 µM,> 10 µM,77.82%,> 10 µM,> 10 µM,4.868 mL/min/kg,1196.24 mL/min/kg,–,–,–
"Cc1cc(O)cc2[nH]cc(C(=O)OCC34CCN(CC3)CC4)c12 [Compound 83, quinuclidin-4-ylmethyl 6-hydroxy-4-methyl-1H-indole-3-carboxylate]",0.0318 µM,0.0279 µM,> 10 µM,71.57%,–,> 10 µM,2.7 mL/min/kg,14.09 mL/min/kg,> 10 µM,> 10 µM,–
"Cc1cc2c(C(=O)OCC34CCN(CC3)CC4)c[nH]c2cc1O [Compound 55, quinuclidin-4-ylmethyl 6-hydroxy-5-methyl-1H-indole-3-carboxylate]",0.0523 µM,0.0448 µM,> 10 µM,40.33%,> 10 µM,> 10 µM,10.3473 mL/min/kg,45.1417 mL/min/kg,–,–,"IC50 (CYP2D6; read-out: 2D6 IC50, Protocol 1): > 10 µM"
"Cc1cc(C)c2c(C(=O)OCC34CCN(CC3)CC4)c[nH]c2c1 [Compound 54, quinuclidin-4-ylmethyl 4,6-dimethyl-1H-indole-3-carboxylate]",0.4 µM,0.343 µM,> 10 µM,89.87%,> 10 µM,> 10 µM,5.294 mL/min/kg,175.357 mL/min/kg,–,–,–
"Cc1cc(Br)c2c(C(=O)OCC34CCN(CC3)CC4)c[nH]c2c1 [Compound 49, quinuclidin-4-ylmethyl 4-bromo-6-methyl-1H-indole-3-carboxylate]",0.25 µM,0.214 µM,> 10 µM,93.39%,> 10 µM,> 10 µM,5.963 mL/min/kg,254.566 mL/min/kg,–,–,–
"COc1cc(Cl)c2c(C(=O)OCC34CCN(CC3)CC4)c[nH]c2c1 [Compound 38, quinuclidin-4-ylmethyl 4-chloro-6-methoxy-1H-indole-3-carboxylate]",0.396 µM,0.341 µM,> 10 µM,96.52%,> 10 µM,> 10 µM,8.15 mL/min/kg,76.79 mL/min/kg,–,–,"T1/2 (Human plasma stability; human, plasma): ∞"
"O=C(OCC12CCN(CC1)CC2)c1c[nH]c2cc(Cl)cc(Br)c12 [Compound 42, quinuclidin-4-ylmethyl 4-bromo-6-chloro-1H-indole-3-carboxylate]",–,–,> 10 µM,72.21%,–,> 10 µM,12.43 mL/min/kg,55.27 mL/min/kg,> 10 µM,> 10 µM,–
"Cc1cc(Cl)cc2[nH]cc(C(=O)OCC34CCN(CC3)CC4)c12 [Compound 50, quinuclidin-4-ylmethyl 6-chloro-4-methyl-1H-indole-3-carboxylate]",1.29 µM,1.1 µM,> 10 µM,100.92%,–,> 10 µM,2.98 mL/min/kg,187.575 mL/min/kg,> 10 µM,> 10 µM,"T1/2 (Human plasma stability; human, plasma): ∞"
"COc1cc(Br)c2c(C(=O)OCC34CCN(CC3)CC4)c[nH]c2c1 [Compound 48, quinuclidin-4-ylmethyl 4-bromo-6-methoxy-1H-indole-3-carboxylate]",0.42 µM,0.36 µM,–,101.03%,> 10 µM,> 10 µM,7.539 mL/min/kg,69.1781 mL/min/kg,–,–,"IC50 (CYP3A4 [7]; read-out: 3A4 IC50 (Midazolam), substrate midazolam, Protocol 1): > 10 µM; IC50 (CYP3A4 [7]; read-out: 3A4 IC50 (Testosterone), substrate testosterone, Protocol 1): > 10 µM; IC50 (CYP2D6; read-out: 2D6 IC50, Protocol 1): > 10 µM"
"COc1cc(C)c2c(C(=O)OCC34CCN(CC3)CC4)c[nH]c2c1 [Compound 37, quinuclidin-4-ylmethyl 6-methoxy-4-methyl-1H-indole-3-carboxylate]",–,–,> 10 µM,108.49%,–,> 10 µM,20.18 mL/min/kg,33.07 mL/min/kg,> 10 µM,> 10 µM,"T1/2 (Human plasma stability; human, plasma): ∞"
"COc1cc2[nH]cc(C(=O)OCC34CCN(CC3)CC4)c2cc1F.Cl [Compound 32, Quinuclidin-4-ylmethyl 5-fluoro-6-methoxy-1H-indole-3-carboxylate hydrochloride]",0.306 µM,0.267 µM,–,–,–,–,–,–,–,–,"IC50 (CYP3A4 [7]; [9]): > 10 µM; IC50 (CYP2C9; read-out: 2C9 IC50, Protocol 2): > 10 µM; IC50 (CYP2C19 [6]; [10]): > 10 µM; half-life at 1 μM (Human plasma stability; [11]): > 120 min; IC50 (CYP1A2; read-out: 1A2 IC50, Protocol 2): > 10 µM; HLM [4, 12]: <13.608 mL/min/kg; IC50 (CYP2D6; read-out: 2D6 IC50, Protocol 2): > 10 µM; RLM [5, 13]: 85.5 mL/min/kg"
"Cl.O=C(OCC12CCN(CC1)CC2)c1c[nH]c2cc3c(cc12)OCCO3 [Compound 30, Quinuclidin-4-ylmethyl 2,3-dihydro-6H-[1,4]dioxino[2,3-f]indole-8-carboxylate hydrochloride]",0.0925 µM,0.0811 µM,–,–,–,–,–,–,–,–,"IC50 (CYP3A4 [7]; [9]): > 10 µM; IC50 (CYP2C9; read-out: 2C9 IC50, Protocol 2): > 10 µM; IC50 (CYP2C19 [6]; [10]): > 10 µM; % Remaining @ 2 h (Human plasma stability; [11]): 10%; half-life at 1 μM (Human plasma stability; [11]): 34.7 min; IC50 (CYP1A2; read-out: 1A2 IC50, Protocol 2): > 10 µM; HLM [4, 12]: <13.608 mL/min/kg; IC50 (CYP2D6; read-out: 2D6 IC50, Protocol 2): > 10 µM; RLM [5, 13]: 55.98 mL/min/kg"
"COc1ccc2[nH]cc(C(=O)OCC34CCN(CC3)CC4)c2c1Br [Compound 47, quinuclidin-4-ylmethyl 4-bromo-5-methoxy-1H-indole-3-carboxylate]",0.0333 µM,0.0285 µM,> 10 µM,72.43%,> 10 µM,> 10 µM,13.5926 mL/min/kg,541.358 mL/min/kg,–,–,–
"O=C(OCC12CCN(CC1)CC2)c1c[nH]c2cc(F)cc(Br)c12 [Compound 41, quinuclidin-4-ylmethyl 4-bromo-6-fluoro-1H-indole-3-carboxylate]",0.76 µM,0.655 µM,> 10 µM,120.27%,–,> 10 µM,7.55 mL/min/kg,86.59 mL/min/kg,> 10 µM,> 10 µM,"T1/2 (Human plasma stability; human, plasma): ∞"
"Cc1cccc2c(C(=O)OCC34CCN(CC3)CC4)c[nH]c12 [Compound 19, quinuclidin-4-ylmethyl 7-methyl-1H-indole-3-carboxylate]",0.764 µM,0.665 µM,–,–,–,–,–,–,–,–,"IC50 (CYP2C19 [3]): > 10 µM; IC50 (CYP1A2; read-out: 1A2 IC50, Protocol 2): > 10 µM; HLM ([4]; human, microsomes, pH 7.4): <13.608 mL/min/kg; IC50 (CYP2D6; read-out: 2D6 IC50, Protocol 2): > 10 µM; RLM ([5]; rat, microsomes, pH 7.4): 280.991 mL/min/kg"
"COc1cc(F)c2c(C(=O)OCC34CCN(CC3)CC4)c[nH]c2c1.Cl [Compound 33, Quinuclidin-4-ylmethyl 4-fluoro-6-methoxy-1H-indole-3-carboxylate hydrochloride]",0.0496 µM,0.0432 µM,–,–,–,–,–,–,–,–,"IC50 (CYP3A4 [7]; [9]): > 10 µM; IC50 (CYP2C9; read-out: 2C9 IC50, Protocol 2): > 10 µM; IC50 (CYP2C19 [6]; [10]): > 10 µM; half-life at 1 μM (Human plasma stability; [11]): 17.6 min; IC50 (CYP1A2; read-out: 1A2 IC50, Protocol 2): > 10 µM; HLM [4, 12]: <13.608 mL/min/kg; IC50 (CYP2D6; read-out: 2D6 IC50, Protocol 2): > 10 µM; RLM [5, 13]: 47.7 mL/min/kg"
